Results published in patent publication US9149480B2, “Use of meloxicam for the long-term treatment of musculoskeletal disorders in cats” (Boehringer Ingeleheim Vetmedica GmbH, priority 2010, dated 2015).

Test system: cats
Assay: Retrospective study of long-term meloxicam treatment in aged cats with osteoarthritis: progression of renal disease versus matched untreated controls
Format: in vivo, cat
Settings: for progression of renal disease: maintenance dose of 0.02 mg/kg; for progression of renal parameters: median maintenance dose 0.02 mg/kg daily; for loss of urine concentrating ability / weight loss: time adjusted AUC change from baseline, Wilcoxon rank-sum-test
Description: The medical records of a feline-only practice were searched for cats with OA being treated with meloxicam during a 4 year period. A diagnosis of OA was based upon any two of the following: owner noted mobility changes and/or physical examination findings or radiographic changes. Cats included were older than 7 years and treated with meloxicam for a duration of more than 6 months. Complete medical records were available for review. Biochemistry, urinalysis and body weight were regularly monitored. The progression of renal disease in the aged non-renal and renal group treated was compared to age matched and IRIS matched untreated controls from the same clinic.
The database of a feline-only practice in suburban Melbourne was searched for cats which had been treated for chronic musculoskeletal disorders with meloxicam (Metacam oral suspension, Boehringer Ingelheim) during a 4 year period. The diagnosis of osteoarthritis or spondylosis deformans had been made based upon any two of the following: owner noted mobility changes, physical examination findings or radiographic changes. The inclusion criteria included cats greater than 7 years old which had been treated continuously with meloxicam for a duration of more than 6 months and which had complete medical records available for review. In addition, cats were only included if serum biochemistry, urine analysis and body weight had been regularly monitored.
Young cats were excluded, as were cats with no pre-treatment renal parameter measurements. In addition cats were also excluded if the owner could not be contacted to check that the cats were still receiving daily treatment with meloxicam.
Age, breed, sex, concomitant diseases and medications as well as date treatment commenced, treatment duration and daily dose of meloxicam were recorded.
The presence or absence of pre-treatment renal disease and staging of the renal disease was carried out using plasma creatinine and urine specific gravity according to the following recognised International Renal Interest Society criteria (IRIS staging 2006):
The treated cats were then subdivided into two groups: the renal treated group that belonged to IRIS stage 1-3 and were pre-treated, and the non-renal treated group that has no identifiable renal disease pre-treatment. Urine specific gravity, serum creatinine and bodyweight were used as indicators of renal disease progression. The progression of renal disease was then compared to age and IRIS matched untreated controls were then randomly identified from the database of the same clinic.
The median age of the renal and non-renal treated cats, median treatment duration and median maintenance dose was calculated.
The progression of renal disease in the non-renal treated group was compared to the age matched untreated controls. The progression of renal disease in the treated renal-diseased group was compared to age matched and IRIS matched untreated controls from the same clinic. Statistical analysis was carried out using a time adjusted area-under-the-curve (AUC) changes from baseline time 0 until the last recorded value (n).
The Wilcoxon rank-sum-test was used to compare the groups. With this nonparametric test the distribution of the adjusted AUC of two groups was compared regarding the location. Under the null hypothesis it is assumed that there is no location shift in the distributions of the two treatment groups. If the resulting p-value is lower than the two-sided significance level of 5% the null hypothesis is rejected.

[1] = non-renal group treated with meloxicam vs non-renal group not treated
[2] = renal group treated with meloxicam vs age and IRIS matched untreated renal group

For `Cc1cnc(NC(=O)C2=C(O)c3ccccc3S(=O)(=O)N2C)s1` [meloxicam], the “progression of renal disease” value (aged cats with pre-existent stable IRIS stage 1-3 renal disease) was “does not hasten progression of renal disease”, the “progression of renal disease” value (aged cats) was “does not hasten progression of renal disease” and the “median maintenance dose after dose titration to the lowest effective dose” value (daily, oral suspension, both the renal treated and non-renal treated groups) was 0.02 mg/kg. The “progression of renal parameters” value (non-renal group treated with meloxicam vs non-renal group not treated, median treatment duration 400 days) was “no differences”, the “loss of urine concentrating ability” value [1] was “no statistically significant differences” and the weight loss [1] was “no statistically significant differences”. For the same compound, the “progression of renal parameters” value (renal group (IRIS stage 1-3) treated with meloxicam vs age and IRIS matched untreated renal group, median treatment duration 527 days) was “no differences”, the “loss of urine concentrating ability” value [2] was “no statistically significant differences” and the weight loss [2] was “no statistically significant differences”. For the same compound, the “mean serum creatinine concentration increase over time” value (renal group treated with meloxicam vs renal untreated group) was “increased statistically significantly less”.
